Source: paper PMC8699473, “An Easily Expandable Multi-Drug LC-MS Assay for the Simultaneous Quantification of 57 Oral Antitumor Drugs in Human Plasma” (Cancers, 2021)

Test: Long-term stability in spiked pooled human plasma

Structure (SMILES)	Long-term stability, 1 month, -20°C Accuracy [%] (validation standard 2xLLOV)	Long-term stability, 1 month, -80°C Accuracy [%] (validation standard 2xLLOV)	Long-term stability, 2 month, -20°C Accuracy [%] (validation standard 2xLLOV)	Long-term stability, 2 month, -80°C Accuracy [%] (validation standard 2xLLOV)	Long-term stability, 3 month, -20°C Accuracy [%] (validation standard 2xLLOV)	Long-term stability, 3 month, -80°C Accuracy [%] (validation standard 2xLLOV)	Long-term stability, 6 weeks, 4°C, without daylight Accuracy [%] (validation standard 2xLLOV)	Long-term stability, 1 month, -20°C Accuracy [%] (validation standard LLOV)	Long-term stability, 1 month, -80°C Accuracy [%] (validation standard LLOV)	Long-term stability, 2 month, -20°C Accuracy [%] (validation standard LLOV)	Long-term stability, 2 month, -80°C Accuracy [%] (validation standard LLOV)	Long-term stability, 3 month, -20°C Accuracy [%] (validation standard LLOV)	Long-term stability, 3 month, -80°C Accuracy [%] (validation standard LLOV)	Long-term stability, 1 month, -20°C Accuracy [%] (validation standard MOV)	Long-term stability, 1 month, -80°C Accuracy [%] (validation standard MOV)	Long-term stability, 2 month, -20°C Accuracy [%] (validation standard MOV)	Long-term stability, 2 month, -80°C Accuracy [%] (validation standard MOV)	Long-term stability, 3 month, -20°C Accuracy [%] (validation standard MOV)	Long-term stability, 3 month, -80°C Accuracy [%] (validation standard MOV)	Long-term stability, 6 weeks, 4°C, without daylight Accuracy [%] (validation standard MOV)	other results
CS(=O)(=O)CCNCc1ccc(-c2ccc3ncnc(Nc4ccc(OCc5cccc(F)c5)c(Cl)c4)c3c2)o1 [Lapatinib]	91.4	92.2	84.4	102.3	72.0	96.3	34.8	85.5	91.6	80.7	98.5	55.4	95.3	95.3	97.6	93.7	103.0	78.1	101.0	101.1	Long-term stability, 6 weeks, 4°C, without daylight Accuracy [%] (validation standard LLOV): 28.2%; Long-term stability, 1 month, -20°C Accuracy [%] (validation standard ULOV): 96.6%; Long-term stability, 1 month, -80°C Accuracy [%] (validation standard ULOV): 94.5%; Long-term stability, 2 month, -20°C Accuracy [%] (validation standard ULOV): 101.5%; Long-term stability, 2 month, -80°C Accuracy [%] (validation standard ULOV): 100.9%; Long-term stability, 3 month, -20°C Accuracy [%] (validation standard ULOV): 95.4%; Long-term stability, 3 month, -80°C Accuracy [%] (validation standard ULOV): 96.7%; Long-term stability, 6 weeks, 4°C, without daylight Accuracy [%] (validation standard ULOV): 99.9%
O=C(Nc1cnn2ccc(N3CCC[C@@H]3c3cc(F)ccc3F)nc12)N1CC[C@H](O)C1 [Larotrectinib]	97.9	92.9	103.6	104.7	100.8	98.8	106.7	85.6	87.5	103.5	102.1	96.4	94.2	96.7	97.2	99.1	103.2	96.2	91.1	105.2	Long-term stability, 6 weeks, 4°C, without daylight Accuracy [%] (validation standard LLOV): 115.2%; Long-term stability, 1 month, -20°C Accuracy [%] (validation standard ULOV): 95.0%; Long-term stability, 1 month, -80°C Accuracy [%] (validation standard ULOV): 95.5%; Long-term stability, 2 month, -20°C Accuracy [%] (validation standard ULOV): 102.5%; Long-term stability, 2 month, -80°C Accuracy [%] (validation standard ULOV): 104.6%; Long-term stability, 3 month, -20°C Accuracy [%] (validation standard ULOV): 97.8%; Long-term stability, 3 month, -80°C Accuracy [%] (validation standard ULOV): 95.6%; Long-term stability, 6 weeks, 4°C, without daylight Accuracy [%] (validation standard ULOV): 98.0%
Nc1cccc2c1CN(C1CCC(=O)NC1=O)C2=O (stereo not shown) [Lenalidomide]	112.2	103.2	97.9	104.0	99.5	104.1	15.8	104.5	96.6	52.8	56.2	69.1	82.4	93.9	93.9	101.8	104.0	92.9	96.0	19.7	Long-term stability, 1 month, -20°C Accuracy [%] (validation standard ULOV): 92.6%; Long-term stability, 1 month, -80°C Accuracy [%] (validation standard ULOV): 88.5%; Long-term stability, 2 month, -20°C Accuracy [%] (validation standard ULOV): 95.8%; Long-term stability, 2 month, -80°C Accuracy [%] (validation standard ULOV): 98.8%; Long-term stability, 3 month, -20°C Accuracy [%] (validation standard ULOV): 89.8%; Long-term stability, 3 month, -80°C Accuracy [%] (validation standard ULOV): 94.4%; Long-term stability, 6 weeks, 4°C, without daylight Accuracy [%] (validation standard ULOV): 16.2%
COc1cc2nccc(Oc3ccc(NC(=O)NC4CC4)c(Cl)c3)c2cc1C(N)=O [Lenvatinib]	99.7	94.9	97.0	100.9	103.0	104.8	105.2	109.4	107.0	102.7	108.7	105.7	110.3	95.8	94.5	98.2	97.2	99.7	100.5	107.3	Long-term stability, 6 weeks, 4°C, without daylight Accuracy [%] (validation standard LLOV): 127.4%; Long-term stability, 1 month, -20°C Accuracy [%] (validation standard ULOV): 96.4%; Long-term stability, 1 month, -80°C Accuracy [%] (validation standard ULOV): 94.7%; Long-term stability, 2 month, -20°C Accuracy [%] (validation standard ULOV): 101.7%; Long-term stability, 2 month, -80°C Accuracy [%] (validation standard ULOV): 101.9%; Long-term stability, 3 month, -20°C Accuracy [%] (validation standard ULOV): 98.3%; Long-term stability, 3 month, -80°C Accuracy [%] (validation standard ULOV): 100.8%; Long-term stability, 6 weeks, 4°C, without daylight Accuracy [%] (validation standard ULOV): 101.9%
C[C@H]1Oc2cc(cnc2N)-c2c(nn(C)c2C#N)CN(C)C(=O)c2ccc(F)cc21 [Lorlatinib]	89.2	84.9	91.9	91.9	91.7	90.8	96.7	87.9	82.6	90.0	87.6	95.7	93.2	88.5	87.8	93.9	91.2	90.9	89.2	93.7	Long-term stability, 6 weeks, 4°C, without daylight Accuracy [%] (validation standard LLOV): 97.1%; Long-term stability, 1 month, -20°C Accuracy [%] (validation standard ULOV): 90.6%; Long-term stability, 1 month, -80°C Accuracy [%] (validation standard ULOV): 87.4%; Long-term stability, 2 month, -20°C Accuracy [%] (validation standard ULOV): 91.4%; Long-term stability, 2 month, -80°C Accuracy [%] (validation standard ULOV): 91.7%; Long-term stability, 3 month, -20°C Accuracy [%] (validation standard ULOV): 91.0%; Long-term stability, 3 month, -80°C Accuracy [%] (validation standard ULOV): 89.2%; Long-term stability, 6 weeks, 4°C, without daylight Accuracy [%] (validation standard ULOV): 91.4%
CO[C@@H]1[C@H](N(C)C(=O)c2ccccc2)C[C@H]2O[C@]1(C)n1c3ccccc3c3c4c(c5c6ccccc6n2c5c31)C(=O)NC4 [Midostaurin]	105.5	106.8	106.0	108.5	97.1	106.8	94.2	109.4	106.4	106.5	101.2	102.8	112.8	105.8	108.1	113.7	116.3	102.0	102.9	103.5	Long-term stability, 6 weeks, 4°C, without daylight Accuracy [%] (validation standard LLOV): 102.3%; Long-term stability, 1 month, -20°C Accuracy [%] (validation standard ULOV): 107.3%; Long-term stability, 1 month, -80°C Accuracy [%] (validation standard ULOV): 103.4%; Long-term stability, 2 month, -20°C Accuracy [%] (validation standard ULOV): 118.6%; Long-term stability, 2 month, -80°C Accuracy [%] (validation standard ULOV): 111.4%; Long-term stability, 3 month, -20°C Accuracy [%] (validation standard ULOV): 93.8%; Long-term stability, 3 month, -80°C Accuracy [%] (validation standard ULOV): 107.0%; Long-term stability, 6 weeks, 4°C, without daylight Accuracy [%] (validation standard ULOV): 97.3%
Cc1cn(-c2cc(NC(=O)c3ccc(C)c(Nc4nccc(-c5cccnc5)n4)c3)cc(C(F)(F)F)c2)cn1 [Nilotinib]	95.1	89.2	96.9	99.7	91.6	92.2	103.4	91.9	89.8	93.3	97.4	90.5	93.1	95.6	91.9	99.1	98.0	96.9	93.1	101.7	Long-term stability, 6 weeks, 4°C, without daylight Accuracy [%] (validation standard LLOV): 102.0%; Long-term stability, 1 month, -20°C Accuracy [%] (validation standard ULOV): 94.2%; Long-term stability, 1 month, -80°C Accuracy [%] (validation standard ULOV): 90.9%; Long-term stability, 2 month, -20°C Accuracy [%] (validation standard ULOV): 97.5%; Long-term stability, 2 month, -80°C Accuracy [%] (validation standard ULOV): 97.0%; Long-term stability, 3 month, -20°C Accuracy [%] (validation standard ULOV): 93.1%; Long-term stability, 3 month, -80°C Accuracy [%] (validation standard ULOV): 91.6%; Long-term stability, 6 weeks, 4°C, without daylight Accuracy [%] (validation standard ULOV): 98.0%
COC(=O)c1ccc2c(c1)NC(=O)/C2=C(\Nc1ccc(N(C)C(=O)CN2CCN(C)CC2)cc1)c1ccccc1 [Nintedanib]	97.2	98.9	103.8	99.7	90.3	91.1	94.4	102.0	102.1	96.9	94.3	88.2	88.3	95.5	91.4	98.9	99.7	97.2	94.7	94.4	Long-term stability, 6 weeks, 4°C, without daylight Accuracy [%] (validation standard LLOV): 86.6%; Long-term stability, 1 month, -20°C Accuracy [%] (validation standard ULOV): 94.5%; Long-term stability, 1 month, -80°C Accuracy [%] (validation standard ULOV): 87.4%; Long-term stability, 2 month, -20°C Accuracy [%] (validation standard ULOV): 97.0%; Long-term stability, 2 month, -80°C Accuracy [%] (validation standard ULOV): 94.8%; Long-term stability, 3 month, -20°C Accuracy [%] (validation standard ULOV): 92.9%; Long-term stability, 3 month, -80°C Accuracy [%] (validation standard ULOV): 91.8%; Long-term stability, 6 weeks, 4°C, without daylight Accuracy [%] (validation standard ULOV): 85.9%
